This is an account of results in ChEMBL document CHEMBL3232986, “Identification of a novel series of potent HCV NS5B Site I inhibitors” (Bioorg Med Chem Lett, 2014).

Series [1] is described as follows: (§1) Drug uptake in rat liver at 5 mg/kg, iv after 6 hrs. The series is classed as ADME, organism-based. Particulars: liver, read-out: Drug uptake; call rule not given here. Also noted: dose 5 mg/kg, route intravenous.
The nature of series [2]: Cytotoxicity against human HuH7 cells after 3 days by Alamar blue assay. The series is classed as cell-based, Huh-7. (Resazurin is reduced to fluorescent resorufin, in cell work by metabolically active cells.)
For series [3], the system named is Hepatitis C virus. Put plainly: Antiviral activity against HCV genotype 1a H77c infected in human HuH7 cells after 3 days by luciferase reporter gene assay. The series is classed as functional, cell-based, Hepacivirus hominis. The conditions noted are these: Huh-7, 72 h.
Series [4] in a line: (§2) Plasma concentration in rat at 5 mg/kg, iv after 6 hrs. The conditions noted are these: plasma. The format is ADME, organism-based. Also noted: dose 5 mg/kg, route intravenous.
Series [5] is described as follows: Inhibition of HCV genotype 1b wild type NS5B polymerase using biotinylated oligo dT12 primer as substrate after 4 hrs in presence of [3H]UTP. Also noted: species or system Hepatitis C virus subtype 1b.
Series [6] in a line: Clearance in rat after 6 hrs. The format is ADME, organism-based. Particulars: in vivo.
Series [7] is described as follows: (§3) Drug uptake in rat liver 10 mg/kg, po after 6 hrs. The series is classed as ADME, organism-based. Also noted: dose 10 mg/kg, route oral. Particulars: liver, read-out: Drug uptake.
The nature of series [8]: (§4) Plasma concentration in rat at 10 mg/kg, po after 6 hrs. The series is classed as ADME, organism-based. Also noted: dose 10 mg/kg, route oral. The conditions noted are these: plasma.
Series [9] relates to Liver. Described as §1. Also noted: dose 5 mg/kg, route intravenous. The series is classed as ADME, organism-based. Particulars: in vivo, 6 h, BLD = below limit of detection.
Series [10] is described as follows: Ratio of EC50 for HCV genotype 1a H77c replicon cells to IC50 for HCV genotype 1b wild type NS5B polymerase. (In general: Replicon systems follow genome replication, usually without infectious particles.)
Series [11] concerns Plasma. The series is described as §2. The format is ADME, organism-based. Also noted: dose 5 mg/kg, route intravenous. The conditions noted are these: in vivo, 6 h, BLD = below limit of detection.
Series [12] has as its system Liver. The series is described as §3. Particulars: in vivo, 6 h, BLD = below limit of detection. Also noted: dose 10 mg/kg, route oral. The format is ADME, organism-based.
The subject of series [13] is Plasma. The description is as §4. The format is ADME, organism-based. Also noted: dose 10 mg/kg, route oral. Particulars: in vivo, 6 h, BLD = below limit of detection.
Series [14] is described as follows: Permeability of the compound at pH 7.4 by PAMPA. The series is classed as physicochemical. Particulars: read-out: permeability. A general note: The PAMPA barrier holds no transporters, so it reflects passive diffusion.
Series [15] can be described thus: Cytotoxicity against human HuH7 cells after 4 hrs by CellTitre-Blue assay. The format is cell-based, Huh-7.
Series [16] is described as follows: Half life in monkey liver microsomes. The series is classed as ADME, Macaca mulatta. The conditions noted are these: rhesus monkey.
Series [17] in a line: Half life in dog liver microsomes. The format is ADME, Canis lupus familiaris.
The nature of series [18]: Permeability of the compound at pH 5.5 by PAMPA. The format is physicochemical. The conditions noted are these: read-out: permeability.
A short description of series [19]: Inhibition of CYP (unknown origin). The format is ADME. The conditions noted are these: human.
Series [20] deals with Liver microsome. Put plainly: Metabolic stability in human liver microsomes. The format is ADME.

Take `COc1ccc2c(c1)[C@@H]1C[C@]1(C(=O)N1CC34COCC3(CN(C)C4)C1)Cn1c-2c(C2CCCCC2)c2ccc(C(=O)NS(=O)(=O)C(C)C)cc21` (some centres undefined): the concentration at 6 h was determined as 52 nM in [1], 6 nM in series [4], 38 nM in series [7] and 2 nM in series [8]. Further, in series [2], the CC50 (commonly the concentration that lowers cell viability or growth by half) at 72 h is 14 µM. Also, in series [3], it took 0.001 µM to reach a half-maximal effect (EC50). Also, in series [5], the IC50 – broadly, the midpoint of a concentration-inhibition curve – is 0.004 µM. Also, the clearance (commonly the volume of plasma or blood freed of the substance per unit of time) in series [6] stood at 27 mL/min/kg.
As for `COc1ccc2c(c1)[C@@H]1C[C@]1(C(=O)N1CC34COCC3(CN(C(C)=O)C4)C1)Cn1c-2c(C2CCCCC2)c2ccc(C(=O)NS(=O)(=O)N(C)C)cc21` (some centres undefined), the Drug uptake entry in series [9] and in [12] was “BLD” in each case. In series [2], this molecule returned a CC50 at 72 h of 24 µM. Also, the Ratio in series [10] is reported as 4. In series [3], the EC50 – broadly, the midpoint of the concentration-response curve – is 0.008 µM. Besides, the Cp entry in series [11] and in [13] was “BLD” in each case. The 50% inhibitory concentration (IC50) in series [5] was found to be 0.002 µM. This molecule also returned a clearance in series [6] of 19 mL/min/kg.
Turning to `CNC(=O)N1CC23COCC2(C1)CN(C(=O)[C@]12C[C@H]1c1cc(OC)ccc1-c1c(C4CCCCC4)c4ccc(C(=O)NS(=O)(=O)N(C)C)cc4n1C2)C3` (some centres undefined), in [10], the Ratio is 43. Besides, the EC50 in series [3] was 0.086 µM. For the same molecule, in [14], the Papp stood at 3.7 ×10⁻⁶ cm/s. Moreover, in [5], the IC50 amounted to 0.002 µM. The same molecule returned a CC50 at 4 h in series [15] of 96 µM.
In the case of `COc1ccc2c(c1)[C@@H]1C[C@]1(C(=O)N1CC34CCC3(CN(C(=O)N(C)C)C4)C1)Cn1c-2c(C2CCCCC2)c2ccc(C(=O)NS(=O)(=O)C(C)C)cc21` (some centres undefined), the values for the half-life in series [16] and in [17] were 24 min and 22 min, respectively. For the same molecule, the EC50 in [3] turned out to be 0.012 µM. Also, the IC50 in [5] is 0.003 µM. In addition, the CC50 at 4 h in series [15] came to 16 µM.
`COc1ccc2c(c1)[C@@H]1C[C@]1(C(=O)N1CC34CCC3(CN(C(=O)N3CCOCC3)C4)C1)Cn1c-2c(C2CCCCC2)c2ccc(C(=O)NS(=O)(=O)N(C)C)cc21` (some centres undefined) yielded an EC50 in series [3] of 0.015 µM. For the same molecule, the figures for the Papp in series [14] and in [18] were 25.9 ×10⁻⁶ cm/s and 11.3 ×10⁻⁶ cm/s, respectively. In [5], the IC50 is 0.002 µM. For the same molecule, the midpoint of cytotoxicity in [15], the CC50 at 4 h, lay at 21 µM.
Molecule `COc1ccc2c(c1)[C@@H]1C[C@]1(C(=O)N1CC34CCC3(C1)CN(S(=O)(=O)C(C)C)C4)Cn1c-2c(C2CCCCC2)c2ccc(C(=O)NS(=O)(=O)N(C)C)cc21` (some centres undefined) had an EC50 in [3] of 0.006 µM. In [5], the IC50 came to 0.003 µM. For the same molecule, in series [19], the “inhibition (INH)” value is “Active”. The midpoint of cytotoxicity in [15], the CC50 at 4 h, lay at 5 µM.
The molecule `CCOCCN1CC23CCC2(C1)CN(C(=O)[C@]12C[C@H]1c1cc(OC)ccc1-c1c(C4CCCCC4)c4ccc(C(=O)NS(=O)(=O)C(C)C)cc4n1C2)C3` (some centres undefined) had an EC50 in series [3] of 0.015 µM. The Stability result in series [20] is reported as “Unstable”. The same molecule yielded a 50% cytotoxic concentration (CC50) at 4 h in series [15] of 10 µM.
